This is an account of results in US20080233179A1, “TRANSDERMAL COMPOSITION HAVING ENHANCED COLOR STABILITY” (priority 2006, published 2008).

For series [1] the following is noted: levodopa taken alone; cited from earlier work.
The target of the next series is D3 receptors (Homo sapiens, UniProt P35462). The conditions noted are these: cited from earlier work.
Series [2] deals with D2 subfamily of dopamine receptors. The conditions noted are these: in vitro; cited from earlier work.
For series [3] the following is noted: three times a day, pramipexole dihydrochloride tablets (Wright et al. 1997); cited from earlier work.
Series [4] can be described thus: Lowest effective concentration of sodium metabisulfite on pramipexole color stability (Example 4). It counts as physicochemical. The conditions noted are these: pramipexole hydrochloride 2.00% (FBE) hydro-alcoholic mixture at apparent pH around 8.0. The protocol: A formulation free of antioxidants served as a blank reference (Formulation F).
In parallel, samples stored at 40° C. in a climatic chamber (C-20/600, Climat Temperatur System, Hechingen, Germany) for 1 month were assessed for color as well. […] The formulation containing the lowest level of sodium metabisulfite (0.10% wt, formulation C) was ranked “BY2”. All the other formulations were colorless.

Where a name gives a salt, the structure may show the parent alone.

Sequence of D3 receptors (P35462 whole entry): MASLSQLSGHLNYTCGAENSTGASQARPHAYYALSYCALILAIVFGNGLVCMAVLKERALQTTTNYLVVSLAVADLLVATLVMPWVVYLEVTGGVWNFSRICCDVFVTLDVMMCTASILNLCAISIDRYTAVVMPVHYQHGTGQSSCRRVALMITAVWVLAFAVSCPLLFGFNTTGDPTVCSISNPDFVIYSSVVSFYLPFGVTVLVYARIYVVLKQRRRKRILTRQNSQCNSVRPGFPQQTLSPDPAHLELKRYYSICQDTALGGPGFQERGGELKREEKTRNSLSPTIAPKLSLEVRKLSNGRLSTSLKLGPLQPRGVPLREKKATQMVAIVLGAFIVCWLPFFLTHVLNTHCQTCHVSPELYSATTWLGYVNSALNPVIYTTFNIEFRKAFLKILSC

For the compound `N[C@@H](Cc1ccc(O)c(O)c1)C(=O)O` [levodopa], the “fraction of the drug broken down into dopamine before it reaches the brain” value in series [1] is given as “about 95%”.
With `CCCN[C@H]1CCc2nc(N)sc2C1` [pramipexole, (S)-2-amino-4,5,6,7-tetrahydro-6-(propylamino)benzothiazole dihydrochloride monohydrate], the “affinity for D3 receptors relative to D2 or D4 receptor subtypes” value at D3 receptors is given as “higher affinity than to D2 or D4 receptor subtypes”. Also, in series [2], the “intrinsic activity at the D2 subfamily of dopamine receptors” value is given as “full intrinsic activity”. Moreover, the steady-state pharmacokinetic characteristics result in series [3] is listed as “linear up to a daily dose of 4.5 mg”.
Consider `O=S([O-])S(=O)(=O)[O-].[Na+].[Na+]` [sodium metabisulfite, Sodium metabisulfite], for which the “minimal amount of sodium metabisulfite preventing color degradation” value in series [4] came out at 0.2 % wt.
